# Results reported in ChEMBL document CHEMBL4387762, “Multicomponent synthesis of α-acylamino and α-acyloxy amide derivatives of desmycosin and their activity against gram-negative bacteria” (2019).
# Assays:
# Format in all cases: functional
# Aliivibrio fischeri [1] = test: Antimicrobial activity against Aliivibrio fischeri DSM507 assessed as growth inhibition at 0.1 uM incubated for 24 hrs by luminescence based assay relative to control; details: DSM507, 24 h, read-out: GI
# Aliivibrio fischeri [2] = test: Antimicrobial activity against Aliivibrio fischeri DSM507 assessed as growth inhibition at 1 uM incubated for 24 hrs by luminescence based assay relative to control; details: DSM507, 24 h, read-out: GI
# Aliivibrio fischeri [3] = test: Antimicrobial activity against Aliivibrio fischeri DSM507 assessed as growth inhibition incubated for 24 hrs by luminescence based assay; details: DSM507, 24 h
compound,measurement,setting,value
CC[C@H]1OC(=O)C[C@@H](O)[C@H](C)[C@@H](O[C@@H]2O[C@H](C)[C@@H](O)[C@H](N(C)C)[C@H]2O)[C@@H](C[C@@H](C(=O)NC(C)(C)C)N(C)C(C)=O)C[C@@H](C)C(=O)/C=C/C(C)=C/[C@@H]1CO[C@H]1O[C@@H](C)[C@H](O)[C@H](OC)[C@@H]1OC,inhibition of growth at 0.1 µM,Aliivibrio fischeri [1],6%
same,inhibition of growth at 1 µM,Aliivibrio fischeri [2],11%
CC[C@H]1OC(=O)C[C@@H](O)[C@H](C)[C@@H](O[C@@H]2O[C@H](C)[C@@H](O)[C@H](N(C)C)[C@H]2O)[C@@H](C[C@H](C(=O)NC(C)(C)C)N(C)C(C)=O)C[C@@H](C)C(=O)/C=C/C(C)=C/[C@@H]1CO[C@H]1O[C@@H](C)[C@H](O)[C@H](OC)[C@@H]1OC,inhibition of growth at 0.1 µM,Aliivibrio fischeri [1],12%
same,inhibition of growth at 1 µM,Aliivibrio fischeri [2],64%
CC[C@@H](C)CN(C(=O)c1ccccc1)C(C[C@H]1C[C@@H](C)C(=O)/C=C/C(C)=C/[C@H](CO[C@H]2O[C@@H](C)[C@H](O)[C@H](OC)[C@@H]2OC)[C@@H](CC)OC(=O)C[C@@H](O)[C@H](C)[C@H]1O[C@@H]1O[C@H](C)[C@@H](O)[C@H](N(C)C)[C@H]1O)C(=O)NC(C)(C)C (some centres undefined),inhibition of growth at 0.1 µM,Aliivibrio fischeri [1],25%
same,inhibition of growth at 1 µM,Aliivibrio fischeri [2],52%
CCCC(=O)OC(C[C@H]1C[C@@H](C)C(=O)/C=C/C(C)=C/[C@H](CO[C@H]2O[C@@H](C)[C@H](O)[C@H](OC)[C@@H]2OC)[C@@H](CC)OC(=O)C[C@@H](O)[C@H](C)[C@H]1O[C@@H]1O[C@H](C)[C@@H](O)[C@H](N(C)C)[C@H]1O)C(=O)NC(C)(C)C (some centres undefined),inhibition of growth at 0.1 µM,Aliivibrio fischeri [1],58%
same,inhibition of growth at 1 µM,Aliivibrio fischeri [2],90%
CC[C@H]1OC(=O)C[C@@H](O)[C@H](C)[C@@H](O[C@@H]2O[C@H](C)[C@@H](O)[C@H](N(C)C)[C@H]2O)[C@@H](CC=O)C[C@@H](C)C(=O)/C=C/C(C)=C/[C@@H]1CO[C@H]1O[C@@H](C)[C@H](O)[C@H](OC)[C@@H]1OC,inhibition of growth at 0.1 µM,Aliivibrio fischeri [1],57%
same,inhibition of growth at 1 µM,Aliivibrio fischeri [2],84%
same,MIC,Aliivibrio fischeri [3],2 to 4 µM
CCCN(C(=O)c1ccccc1)C(C[C@H]1C[C@@H](C)C(=O)/C=C/C(C)=C/[C@H](CO[C@H]2O[C@@H](C)[C@H](O)[C@H](OC)[C@@H]2OC)[C@@H](CC)OC(=O)C[C@@H](O)[C@H](C)[C@H]1O[C@@H]1O[C@H](C)[C@@H](O)[C@H](N(C)C)[C@H]1O)C(=O)NC(C)(C)C (mixture of isomers),inhibition of growth at 0.1 µM,Aliivibrio fischeri [1],16%
same,inhibition of growth at 1 µM,Aliivibrio fischeri [2],41%
CC[C@H]1OC(=O)C[C@@H](O)[C@H](C)[C@@H](O[C@@H]2O[C@H](C)[C@@H](O)[C@H](N(C)C)[C@H]2O)[C@@H](CC(C(=O)NC(C)(C)C)N(C(=O)c2ccccc2)C(C)C)C[C@@H](C)C(=O)/C=C/C(C)=C/[C@@H]1CO[C@H]1O[C@@H](C)[C@H](O)[C@H](OC)[C@@H]1OC (mixture of isomers),inhibition of growth at 0.1 µM,Aliivibrio fischeri [1],54%
same,inhibition of growth at 1 µM,Aliivibrio fischeri [2],79%
CCCC(=O)N(C)C(C[C@H]1C[C@@H](C)C(=O)/C=C/C(C)=C/[C@H](CO[C@H]2O[C@@H](C)[C@H](O)[C@H](OC)[C@@H]2OC)[C@@H](CC)OC(=O)C[C@@H](O)[C@H](C)[C@H]1O[C@@H]1O[C@H](C)[C@@H](O)[C@H](N(C)C)[C@H]1O)C(=O)NC(C)(C)C (mixture of isomers),inhibition of growth at 0.1 µM,Aliivibrio fischeri [1],26%
same,inhibition of growth at 1 µM,Aliivibrio fischeri [2],73%
CC[C@H]1OC(=O)C[C@@H](O)[C@H](C)[C@@H](O[C@@H]2O[C@H](C)[C@@H](O)[C@H](N(C)C)[C@H]2O)[C@@H](CC(C(=O)NC(C)(C)C)N(CCCCN=[N+]=[N-])C(=O)c2ccccc2)C[C@@H](C)C(=O)/C=C/C(C)=C/[C@@H]1CO[C@H]1O[C@@H](C)[C@H](O)[C@H](OC)[C@@H]1OC (mixture of isomers),inhibition of growth at 0.1 µM,Aliivibrio fischeri [1],46%
same,inhibition of growth at 1 µM,Aliivibrio fischeri [2],64%
CC[C@H]1OC(=O)C[C@@H](O)[C@H](C)[C@@H](O[C@@H]2O[C@H](C)[C@@H](O)[C@H](N(C)C)[C@H]2O)[C@@H](CC(C(=O)NC2CCCCC2)N(C(=O)c2ccccc2)C(C)C)C[C@@H](C)C(=O)/C=C/C(C)=C/[C@@H]1CO[C@H]1O[C@@H](C)[C@H](O)[C@H](OC)[C@@H]1OC (mixture of isomers),inhibition of growth at 0.1 µM,Aliivibrio fischeri [1],21%
same,inhibition of growth at 1 µM,Aliivibrio fischeri [2],44%
CCC(=O)N(C(C)C)C(C[C@H]1C[C@@H](C)C(=O)/C=C/C(C)=C/[C@H](CO[C@H]2O[C@@H](C)[C@H](O)[C@H](OC)[C@@H]2OC)[C@@H](CC)OC(=O)C[C@@H](O)[C@H](C)[C@H]1O[C@@H]1O[C@H](C)[C@@H](O)[C@H](N(C)C)[C@H]1O)C(=O)NC(C)(C)C (mixture of isomers),inhibition of growth at 0.1 µM,Aliivibrio fischeri [1],38%
same,inhibition of growth at 1 µM,Aliivibrio fischeri [2],71%
CC[C@H]1OC(=O)C[C@@H](O)[C@H](C)[C@@H](O[C@@H]2O[C@H](C)[C@@H](O)[C@H](N(C)C)[C@H]2O)[C@@H](CC(C(=O)NC(C)(C)C)N(CCCNC(=O)OCc2ccccc2)C(=O)c2ccccc2)C[C@@H](C)C(=O)/C=C/C(C)=C/[C@@H]1CO[C@H]1O[C@@H](C)[C@H](O)[C@H](OC)[C@@H]1OC (mixture of isomers),inhibition of growth at 0.1 µM,Aliivibrio fischeri [1],47%
same,inhibition of growth at 1 µM,Aliivibrio fischeri [2],64%
CC[C@H]1OC(=O)C[C@@H](O)[C@H](C)[C@@H](O[C@@H]2O[C@H](C)[C@@H](O)[C@H](N(C)C)[C@H]2O)[C@@H](CC(OC(=O)c2ccccc2)C(=O)NC(C)(C)C)C[C@@H](C)C(=O)/C=C/C(C)=C/[C@@H]1CO[C@H]1O[C@@H](C)[C@H](O)[C@H](OC)[C@@H]1OC (mixture of isomers),inhibition of growth at 0.1 µM,Aliivibrio fischeri [1],18%
same,inhibition of growth at 1 µM,Aliivibrio fischeri [2],52%
CC[C@H]1OC(=O)C[C@@H](O)[C@H](C)[C@@H](O[C@@H]2O[C@H](C)[C@@H](O)[C@H](N(C)C)[C@H]2O)[C@@H](CC(C(=O)NC(C)(C)C)N(C(=O)c2ccccc2)c2ccccc2)C[C@@H](C)C(=O)/C=C/C(C)=C/[C@@H]1CO[C@H]1O[C@@H](C)[C@H](O)[C@H](OC)[C@@H]1OC (mixture of isomers),inhibition of growth at 0.1 µM,Aliivibrio fischeri [1],22%
same,inhibition of growth at 1 µM,Aliivibrio fischeri [2],36%
CC[C@H]1OC(=O)C[C@@H](O)[C@H](C)[C@@H](O[C@@H]2O[C@H](C)[C@@H](O)[C@H](N(C)C)[C@H]2O)[C@@H](CC(C(=O)NC(C)(C)C)N(CC)C(=O)c2ccccc2)C[C@@H](C)C(=O)/C=C/C(C)=C/[C@@H]1CO[C@H]1O[C@@H](C)[C@H](O)[C@H](OC)[C@@H]1OC (mixture of isomers),inhibition of growth at 0.1 µM,Aliivibrio fischeri [1],11%
same,inhibition of growth at 1 µM,Aliivibrio fischeri [2],20%
CC[C@H]1OC(=O)C[C@@H](O)[C@H](C)[C@@H](O[C@@H]2O[C@H](C)[C@@H](O)[C@H](N(C)C)[C@H]2O)[C@@H](CC(C(=O)NC(C)(C)C)N(CCCCN)C(=O)c2ccccc2)C[C@@H](C)C(=O)/C=C/C(C)=C/[C@@H]1CO[C@H]1O[C@@H](C)[C@H](O)[C@H](OC)[C@@H]1OC (mixture of isomers),inhibition of growth at 0.1 µM,Aliivibrio fischeri [1],6%
same,inhibition of growth at 1 µM,Aliivibrio fischeri [2],36%
CC[C@H]1OC(=O)C[C@@H](O)[C@H](C)[C@@H](O[C@@H]2O[C@H](C)[C@@H](O)[C@H](N(C)C)[C@H]2O)[C@@H](CC(C(=O)NC(C)(C)C)N(CCNC(=O)OC(C)(C)C)C(=O)c2ccccc2)C[C@@H](C)C(=O)/C=C/C(C)=C/[C@@H]1CO[C@H]1O[C@@H](C)[C@H](O)[C@H](OC)[C@@H]1OC (mixture of isomers),inhibition of growth at 0.1 µM,Aliivibrio fischeri [1],34%
same,inhibition of growth at 1 µM,Aliivibrio fischeri [2],56%
CCCCNC(=O)C(C[C@H]1C[C@@H](C)C(=O)/C=C/C(C)=C/[C@H](CO[C@H]2O[C@@H](C)[C@H](O)[C@H](OC)[C@@H]2OC)[C@@H](CC)OC(=O)C[C@@H](O)[C@H](C)[C@H]1O[C@@H]1O[C@H](C)[C@@H](O)[C@H](N(C)C)[C@H]1O)N(C)C(=O)CCC (mixture of isomers),inhibition of growth at 0.1 µM,Aliivibrio fischeri [1],15%
same,inhibition of growth at 1 µM,Aliivibrio fischeri [2],62%
CCCCNC(=O)C(C[C@H]1C[C@@H](C)C(=O)/C=C/C(C)=C/[C@H](CO[C@H]2O[C@@H](C)[C@H](O)[C@H](OC)[C@@H]2OC)[C@@H](CC)OC(=O)C[C@@H](O)[C@H](C)[C@H]1O[C@@H]1O[C@H](C)[C@@H](O)[C@H](N(C)C)[C@H]1O)N(C(=O)c1ccccc1)C(C)C (mixture of isomers),inhibition of growth at 0.1 µM,Aliivibrio fischeri [1],31%
same,inhibition of growth at 1 µM,Aliivibrio fischeri [2],57%
CCCC(=O)N(C(C)C)C(C[C@H]1C[C@@H](C)C(=O)/C=C/C(C)=C/[C@H](CO[C@H]2O[C@@H](C)[C@H](O)[C@H](OC)[C@@H]2OC)[C@@H](CC)OC(=O)C[C@@H](O)[C@H](C)[C@H]1O[C@@H]1O[C@H](C)[C@@H](O)[C@H](N(C)C)[C@H]1O)C(=O)NC(C)(C)C (mixture of isomers),inhibition of growth at 0.1 µM,Aliivibrio fischeri [1],43%
same,inhibition of growth at 1 µM,Aliivibrio fischeri [2],83%
CC[C@H]1OC(=O)C[C@@H](O)[C@H](C)[C@@H](O[C@@H]2O[C@H](C)[C@@H](O)[C@H](N(C)C)[C@H]2O)[C@@H](CC(C(=O)NC(C)(C)C)N(C)C(=O)c2ccccc2)C[C@@H](C)C(=O)/C=C/C(C)=C/[C@@H]1CO[C@H]1O[C@@H](C)[C@H](O)[C@H](OC)[C@@H]1OC (mixture of isomers),inhibition of growth at 0.1 µM,Aliivibrio fischeri [1],69%
same,inhibition of growth at 1 µM,Aliivibrio fischeri [2],99%
"CC[C@H]1OC(=O)C[C@@H](O)[C@H](C)[C@@H](O[C@@H]2O[C@H](C)[C@@H](O)[C@H](N(C)C)[C@H]2O)[C@@H](CC(C(=O)NC(C)(C)C)N(C)C(=O)c2ccccc2)C[C@@H](C)C(=O)/C=C/C(C)=C/[C@@H]1CO[C@H]1O[C@@H](C)[C@H](O)[C@H](OC)[C@@H]1OC (single isomer, unassigned)",MIC,Aliivibrio fischeri [3],2 to 4 µM
